In patent publication US9187475B2, “Pyrrolopyridinone derivatives as TTX-S blockers” (RaQualia Pharma Inc., priority 2012, dated 2015) one finds IC50 and Ki data, which are given here for two molecules.

Holding throughout (format): cell-based
One assay has as its target T1, human Nav1.7 channels (Homo sapiens, UniProt Q15858).
T1 construct: expressed in transfected cells; host or cells: CHO
Description: FRET assay, CHO cells expressing human NaV1.7 channels. As to conditions: read-out: activities against Nav1.7. The procedure:
(§1) The ability of the pyrrolopyridinone derivatives of the formula (I) to inhibit the NaV1.3, Nav1.7 and Nav1.5 channels is measured by Fluorescence Resonance Energy Transfer (FRET) assay and electrophysiology assay described below.
(§2) This screen is used to determine the effects of compounds on human NaV1.3, human Nav1.7, and human Nav1.5 channels, utilising electrical field stimulation (EFS) system in 96-well plate format on FDSS (Hamamatsu Photonics) platform. The change of membrane potential is monitored with FRET dye pair, oxonol (DiSBAC2(3)) and coumarin (CC2-DMPE).
CHO cells expressing human NaV1.7 channels are grown in T225 flasks, in a 5% CO2 humidified incubator to about 80% confluence. Media composition consists of HAM/F12 with GlutaMAX™ I, 10% FCS, 100 units/mL penicillin and 100 microgram/mL hygromycin. […]
(§3) The data are analyzed and reported as normalized ratios of intensities measured at […]. […]
(§4) This analysis is performed using a computerized specific program designed for FDSS generated data. Fluorescence ratio values are plotted using XLfit™ to determine an IC50 value for each compound.

For the next assay, the target named is T2, human Nav1.5 channels (Homo sapiens, UniProt Q14524).
T2 construct: expressed in transfected cells; host or cells: HEK293
The assay can be described thus: FRET assay, HEK293 cells expressing human NaV1.5 channels. The following applies: read-out: activities against Nav1.5. How it is done:
as §1, §2
(§5) Each HEK293 cells expressing human NaV1.3 channels and HEK293 cells expressing human NaV1.5 channels are grown in T225 flasks, in a 5% CO2 humidified incubator to about 80% confluence. Media composition consists of Dulbecco's Modified Eagle Medium (high glucose), 10% FCS, 100 units/mL penicillin, 100 microgram/mL streptomycin and 500 microgram/mL Geneticin™. […]
as §3, §4

The target in another assay is T3, human NaV1.3 channels (Homo sapiens, UniProt Q9NY46).
T3 construct: expressed in transfected cells; host or cells: HEK293
T3 sequence (Q9NY46 whole entry): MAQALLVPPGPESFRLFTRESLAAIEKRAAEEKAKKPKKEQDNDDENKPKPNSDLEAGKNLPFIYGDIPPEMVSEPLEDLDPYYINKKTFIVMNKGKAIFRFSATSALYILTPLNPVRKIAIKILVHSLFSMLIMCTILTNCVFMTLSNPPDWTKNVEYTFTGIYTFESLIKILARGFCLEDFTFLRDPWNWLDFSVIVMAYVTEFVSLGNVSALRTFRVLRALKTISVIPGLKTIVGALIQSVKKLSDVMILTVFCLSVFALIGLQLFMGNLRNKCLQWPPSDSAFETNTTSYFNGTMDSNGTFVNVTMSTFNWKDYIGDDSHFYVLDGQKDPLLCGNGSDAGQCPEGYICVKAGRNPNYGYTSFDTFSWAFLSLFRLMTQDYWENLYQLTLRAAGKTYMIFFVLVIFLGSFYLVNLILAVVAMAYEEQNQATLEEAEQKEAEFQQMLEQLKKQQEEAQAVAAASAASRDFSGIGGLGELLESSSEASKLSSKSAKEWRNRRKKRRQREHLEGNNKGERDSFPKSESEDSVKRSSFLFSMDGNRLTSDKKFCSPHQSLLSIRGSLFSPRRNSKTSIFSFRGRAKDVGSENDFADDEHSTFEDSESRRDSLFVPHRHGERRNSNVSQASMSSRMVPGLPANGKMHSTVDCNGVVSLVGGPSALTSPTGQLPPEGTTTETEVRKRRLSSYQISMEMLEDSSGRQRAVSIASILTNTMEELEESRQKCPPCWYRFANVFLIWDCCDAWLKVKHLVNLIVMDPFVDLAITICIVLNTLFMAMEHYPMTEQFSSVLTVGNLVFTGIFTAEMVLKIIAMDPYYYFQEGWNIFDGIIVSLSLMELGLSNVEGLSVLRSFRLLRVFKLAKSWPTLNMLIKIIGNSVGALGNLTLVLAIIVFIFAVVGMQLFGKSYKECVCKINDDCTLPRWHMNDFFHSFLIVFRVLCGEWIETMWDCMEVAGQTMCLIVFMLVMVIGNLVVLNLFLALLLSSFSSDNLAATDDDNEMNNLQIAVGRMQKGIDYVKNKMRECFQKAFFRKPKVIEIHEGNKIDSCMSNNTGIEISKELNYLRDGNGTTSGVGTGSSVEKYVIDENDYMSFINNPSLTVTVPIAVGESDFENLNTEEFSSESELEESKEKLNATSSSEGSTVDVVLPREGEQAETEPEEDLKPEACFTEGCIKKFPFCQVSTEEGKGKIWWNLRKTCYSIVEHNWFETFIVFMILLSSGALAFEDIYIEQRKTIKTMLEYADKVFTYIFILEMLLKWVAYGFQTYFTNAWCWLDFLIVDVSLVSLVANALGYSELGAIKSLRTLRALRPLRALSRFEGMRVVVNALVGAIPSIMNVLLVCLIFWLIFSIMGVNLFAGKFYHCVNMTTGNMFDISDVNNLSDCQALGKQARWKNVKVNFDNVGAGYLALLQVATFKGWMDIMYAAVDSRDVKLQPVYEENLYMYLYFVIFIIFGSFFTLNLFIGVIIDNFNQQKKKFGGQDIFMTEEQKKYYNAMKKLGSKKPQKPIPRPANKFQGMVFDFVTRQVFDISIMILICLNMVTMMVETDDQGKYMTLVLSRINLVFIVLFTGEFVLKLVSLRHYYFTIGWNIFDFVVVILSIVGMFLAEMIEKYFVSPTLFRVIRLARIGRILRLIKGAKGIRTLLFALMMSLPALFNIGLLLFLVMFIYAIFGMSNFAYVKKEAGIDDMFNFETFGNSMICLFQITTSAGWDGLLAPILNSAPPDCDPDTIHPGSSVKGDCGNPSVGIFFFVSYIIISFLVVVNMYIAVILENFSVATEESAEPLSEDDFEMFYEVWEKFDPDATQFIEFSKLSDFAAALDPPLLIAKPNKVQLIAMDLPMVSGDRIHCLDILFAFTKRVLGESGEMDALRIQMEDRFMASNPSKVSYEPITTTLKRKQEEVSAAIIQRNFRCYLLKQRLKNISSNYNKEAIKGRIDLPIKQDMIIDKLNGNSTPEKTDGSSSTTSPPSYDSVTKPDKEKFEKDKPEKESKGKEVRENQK
Description: FRET assay, HEK293 cells expressing human NaV1.3 channels. The following applies: read-out: activities against Nav1.3. How it is done:
as §1, §2, §5, §3, §4

The target in another assay is T4, human Nav1.3 (hSCN3A) (Homo sapiens, UniProt Q9NY46).
T4 construct: expressed in transfected cells; host or cells: HEK293
T4 sequence (Q9NY46 whole entry): as above
The assay can be described thus: Electrophysiology assay (whole cell patch clamp), human Nav1.3 (hSCN3A) expressing HEK293 cells. As to conditions: dissociation constant for the inactivated state (Kinact); read-out: activities (Ki) against NaV1.3. How it is done: (§6) Whole cell patch clamp recording is used to assess the efficacy or selectivity of Na channel blocker on human Nav1.3 (hSCN3A) expressing HEK293 cells or human Nav1.7 (hSCN9A) expressing CHO cells. Human Nav1.3 expressing HEK293 cells are grown in growth media which contain: Dulbecco's […] (DMEM), 10% heat-inactivated fetal bovine serum (FBS) (Hyclone Laboratories Inc), 100 microgram/mL penicillin/100 U/mL streptomycin, 150 microgram/mL Zeocin™, and 3 microgram/mL Geneticin. Human […], expressing CHO cells are grown in growth media which contain: HAM/F-12, 9% heat-inactivated FBS (Hyclone Laboratories Inc), and 100 microgram/mL penicillin/100 U/mL streptomycin, and 100 microgram/mL hygromycin.
(§7) Na channel expressing cells are dissociated by 0.05 trypsin-EDTA, and then seeded on cover glass for 24 to 48 hr. […]
(§8) The normalized steady-state inactivation curve is constructed using 2 sec (for vehicle) or 60 sec (for drugs) conditioning pulse to different potentials followed immediately by the test pulse to −10 mV. […] The affinity of drugs to resting state of Na channels (Kresting or Kt) is assessed by 30 msec test pulse from a negative holding potential of −120 or −130 mV, where virtually all channels are in the resting state. Kr value is calculated by a conventional 1:1 binding model: Kresting(Kr)={[drug]Imax,drug/(Imax,control−Imax,drug)} [Math.2] […]
On the technique in general: The patch-clamp technique gives a direct electrical read-out from membranes.

The target in a further assay is T5, human Nav1.7 (hSCN9A) (Homo sapiens, UniProt Q15858).
T5 construct: expressed in transfected cells; host or cells: CHO
T5 sequence (Q15858 whole entry): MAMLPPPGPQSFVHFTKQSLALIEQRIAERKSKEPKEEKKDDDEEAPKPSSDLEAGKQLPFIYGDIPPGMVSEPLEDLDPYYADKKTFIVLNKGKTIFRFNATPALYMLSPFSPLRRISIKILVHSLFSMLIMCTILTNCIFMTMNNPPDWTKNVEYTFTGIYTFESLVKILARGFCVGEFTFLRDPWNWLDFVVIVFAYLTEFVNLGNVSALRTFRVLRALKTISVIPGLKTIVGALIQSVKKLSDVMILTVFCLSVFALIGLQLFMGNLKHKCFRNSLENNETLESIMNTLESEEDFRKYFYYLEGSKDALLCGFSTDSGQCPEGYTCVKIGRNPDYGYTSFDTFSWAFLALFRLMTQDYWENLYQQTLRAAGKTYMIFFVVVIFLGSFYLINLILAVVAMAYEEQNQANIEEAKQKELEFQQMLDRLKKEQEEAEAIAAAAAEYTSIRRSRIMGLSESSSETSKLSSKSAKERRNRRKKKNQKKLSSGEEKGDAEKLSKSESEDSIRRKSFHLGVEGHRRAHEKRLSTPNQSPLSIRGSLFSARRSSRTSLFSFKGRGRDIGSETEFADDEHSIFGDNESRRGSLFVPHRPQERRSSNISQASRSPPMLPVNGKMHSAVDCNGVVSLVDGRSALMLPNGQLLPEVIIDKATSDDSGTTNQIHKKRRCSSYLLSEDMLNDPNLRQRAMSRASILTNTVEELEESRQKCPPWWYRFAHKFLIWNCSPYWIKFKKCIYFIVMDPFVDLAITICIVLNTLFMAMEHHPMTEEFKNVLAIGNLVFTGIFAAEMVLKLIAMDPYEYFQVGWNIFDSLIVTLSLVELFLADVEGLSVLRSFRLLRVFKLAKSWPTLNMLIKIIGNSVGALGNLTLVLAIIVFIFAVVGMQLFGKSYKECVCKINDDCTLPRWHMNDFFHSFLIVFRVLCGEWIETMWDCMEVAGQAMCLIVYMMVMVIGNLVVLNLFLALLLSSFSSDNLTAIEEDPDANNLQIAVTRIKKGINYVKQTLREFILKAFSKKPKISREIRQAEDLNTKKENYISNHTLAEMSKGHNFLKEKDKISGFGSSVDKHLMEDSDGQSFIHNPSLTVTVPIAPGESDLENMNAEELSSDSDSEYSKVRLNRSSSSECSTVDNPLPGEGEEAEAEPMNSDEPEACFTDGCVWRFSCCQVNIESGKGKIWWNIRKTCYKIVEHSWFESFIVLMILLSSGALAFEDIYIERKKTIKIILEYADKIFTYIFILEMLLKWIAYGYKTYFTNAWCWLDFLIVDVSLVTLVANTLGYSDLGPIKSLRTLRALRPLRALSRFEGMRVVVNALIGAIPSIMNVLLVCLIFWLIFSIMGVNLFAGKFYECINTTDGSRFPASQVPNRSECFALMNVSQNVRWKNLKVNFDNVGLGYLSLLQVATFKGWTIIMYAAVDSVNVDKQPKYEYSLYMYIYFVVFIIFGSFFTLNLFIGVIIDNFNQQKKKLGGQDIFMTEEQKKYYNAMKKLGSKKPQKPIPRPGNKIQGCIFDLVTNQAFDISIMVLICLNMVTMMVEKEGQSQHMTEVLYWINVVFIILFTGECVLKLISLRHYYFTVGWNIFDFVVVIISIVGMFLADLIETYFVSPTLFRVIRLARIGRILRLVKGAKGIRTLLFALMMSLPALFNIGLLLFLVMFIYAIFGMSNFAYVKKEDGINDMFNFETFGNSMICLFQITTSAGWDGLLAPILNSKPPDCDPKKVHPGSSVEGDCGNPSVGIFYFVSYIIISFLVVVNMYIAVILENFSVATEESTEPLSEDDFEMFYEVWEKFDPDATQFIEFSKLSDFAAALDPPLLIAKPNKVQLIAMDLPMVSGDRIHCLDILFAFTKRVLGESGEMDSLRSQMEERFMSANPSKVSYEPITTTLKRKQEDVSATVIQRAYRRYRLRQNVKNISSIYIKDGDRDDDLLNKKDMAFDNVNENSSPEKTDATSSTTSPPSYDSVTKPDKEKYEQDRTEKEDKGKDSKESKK
Description: Electrophysiology assay (whole cell patch clamp), human Nav1.7 (hSCN9A) expressing CHO cells. The following applies: dissociation constant for the inactivated state (Kinact); read-out: activities (Ki) against NaV1.7. How it is done: as §6, §7, §8

T1 sequence (Q15858 whole entry): as above

As for `CC(=O)Nc1nccc2c1CN(C(C)c1cnc(OCC(F)(F)F)c(C)c1)C2=O` (single isomer, unassigned) [Example 2, N-(2-(1-(5-methyl-6-(2,2,2-trifluoroethoxy)pyridin-3-yl)ethyl)-1-oxo-2,3-dihydro-1H-pyrrolo[3,4-c]pyridin-4-yl)acetamide], the values for the IC50 at human Nav1.7 channels, on human Nav1.5 channels and on human NaV1.3 channels were 1100 nM, over 30000 nM and 440 nM, respectively.
On to `Cc1cc(C(C)N2Cc3c(ccnc3NC(=O)C(C)C)C2=O)cnc1OCC(F)(F)F` (single isomer, unassigned) [Example 3, N-(2-(1-(5-methyl-6-(2,2,2-trifluoroethoxy)pyridin-3-yl)ethyl)-1-oxo-2,3-dihydro-1H-pyrrolo[3,4-c]pyridin-4-yl)isobutyramide], for which the Ki on human Nav1.3 (hSCN3A) came to 140 nM; on human Nav1.7 (hSCN9A), 91 nM.
